Results as given in PubChem BioAssay (NCI).
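Assay format: 96-well plates, 48-hour exposure. GI50 marks 50% less growth. Definition used: TGI = concentration required for complete inhibition of growth.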 Where a SMILES comes first, the peptide text is derived from it. [ ]: non-standard residue; d: D form. The star is where a group is joined. Ac5c = NC1(C(=O)O)CCCC1; Boc = CC(C)(C)OC(=O)*; tBu = CC(C)(C)*

How the values were obtained:
Assay in all cases: NCI-60 cell line screen, 48 h
[1] = tested on: 786-0 renal
[2] = tested on: A498 renal
[3] = tested on: A549 NSCLC
[4] = tested on: ACHN renal
[5] = tested on: BT-549 breast
[6] = tested on: CAKI-1 renal
[7] = tested on: CCRF-CEM leukemia
[8] = tested on: DU-145 prostate
[9] = tested on: HCC-2998 colon
[10] = tested on: HCT-116 colon
[11] = tested on: HL-60(TB) leukemia
[12] = tested on: HOP-62 NSCLC
[13] = tested on: HT29 colon
[14] = tested on: K-562 leukemia
[15] = tested on: LOX IMVI melanoma
[16] = tested on: MCF7 breast
[17] = tested on: MOLT-4 leukemia
[18] = tested on: NCI-H23 lung
[19] = tested on: NCI-H460 lung
[20] = tested on: OVCAR-5 ovarian
[21] = tested on: OVCAR-8 ovarian
[22] = tested on: RXF 393 renal
[23] = tested on: SF-539 CNS
[24] = tested on: SK-MEL-28 melanoma
[25] = tested on: SK-MEL-5 melanoma
[26] = tested on: SNB-19 CNS
[27] = tested on: SNB-75 CNS
[28] = tested on: SR leukemia
[29] = tested on: TK-10 renal
[30] = tested on: UACC-62 melanoma
[31] = tested on: UO-31 renal
[32] = tested on: COLO 205 colon
[33] = tested on: EKVX NSCLC
[34] = tested on: HCT-15 colon
[35] = tested on: HOP-92 NSCLC
[36] = tested on: HS 578T breast
[37] = tested on: IGROV1 ovarian
[38] = tested on: KM12 colon
[39] = tested on: M14 melanoma
[40] = tested on: MALME-3M melanoma
[41] = tested on: MDA-MB-231 breast
[42] = tested on: NCI-H226 lung
[43] = tested on: NCI-H522 lung
[44] = tested on: NCI/ADR-RES ovarian
[45] = tested on: OVCAR-3 ovarian
[46] = tested on: OVCAR-4 ovarian
[47] = tested on: PC-3 prostate
[48] = tested on: RPMI-8226 leukemia
[49] = tested on: SF-268 CNS
[50] = tested on: SF-295 CNS
[51] = tested on: SK-MEL-2 melanoma
[52] = tested on: SK-OV-3 ovarian
[53] = tested on: SN12C renal
[54] = tested on: SW-620 colon
[55] = tested on: T-47D breast
[56] = tested on: U251 CNS
[57] = tested on: UACC-257 melanoma
[58] = tested on: MDA-MB-435

## O=c1[nH]c(=O)n(C2C[C@@H](O)[C@@H](CO)O2)cc1F (some centres undefined)
[1]
  TGI: > 100 µM
[2]
  TGI: 7.48 µM
[3]
  TGI: > 100 µM
[4]
  TGI: > 100 µM
[5]
  TGI: > 100 µM
[6]
  TGI: > 100 µM
[7]
  GI50: 0.0198 µM
  TGI: > 100 µM
[8]
  TGI: > 100 µM
[9]
  TGI: 4.45 µM
[10]
  GI50: 0.0289 µM
  TGI: > 100 µM
[11]
  GI50: 0.482 µM
  TGI: > 100 µM
[12]
  TGI: 0.956 µM
[13]
  TGI: > 100 µM
[14]
  GI50: 0.156 µM
  TGI: > 100 µM
[15]
  TGI: > 100 µM
[16]
  GI50: < 0.01 µM
  TGI: > 100 µM
[17]
  GI50: 0.0375 µM
[18]
  TGI: > 100 µM
[19]
  TGI: 9.8 µM
[20]
  GI50: 8.4 µM
  TGI: > 100 µM
[21]
  TGI: > 100 µM
[22]
  TGI: 13.3 µM
[23]
  TGI: > 60.8 µM
[24]
  GI50: 0.433 µM
  TGI: > 100 µM
[25]
  TGI: 0.385 µM
[26]
  TGI: > 100 µM
[27]
  TGI: > 21.4 µM
[28]
  GI50: 0.184 µM
  TGI: > 38.1 µM
[29]
  TGI: > 100 µM
[30]
  TGI: > 100 µM
[31]
  TGI: 30.3 µM

## Nc1ccc(Oc2ccc(C34CC5CC(C3)CC(c3ccc(Oc6ccc(N)c(O)c6)cc3)(C5)C4)cc2)cc1O
[1]
  TGI: > 46 µM
[2]
  TGI: 36.1 µM
[3]
  TGI: 3.24 µM
[4]
  TGI: 3.5 µM
[5]
  TGI: 3.37 µM
[6]
  TGI: 3.57 µM
[32]
  TGI: 2.85 µM
[8]
  TGI: 3.3 µM
[33]
  TGI: 3.63 µM
[34]
  TGI: 4.37 µM
[12]
  TGI: 12 µM
[35]
  TGI: 4.48 µM
[36]
  TGI: 4.97 µM
[13]
  TGI: 5.16 µM
[37]
  TGI: 3.04 µM
[14]
  TGI: > 100 µM
[38]
  TGI: 3.62 µM
[15]
  TGI: 3.11 µM
[39]
  TGI: 3.05 µM
[40]
  TGI: 6.24 µM
[16]
  TGI: 8.95 µM
[41]
  TGI: 3 µM
[17]
  TGI: > 100 µM
[42]
  TGI: 9.93 µM
[18]
  TGI: 4.1 µM
[19]
  TGI: 3.37 µM
[43]
  TGI: 3.33 µM
[44]
  TGI: 6.12 µM
[45]
  TGI: 5.05 µM
[46]
  TGI: 5.28 µM
[20]
  TGI: 4.3 µM
[21]
  TGI: 4.86 µM
[47]
  TGI: 5.69 µM
[48]
  TGI: > 100 µM
[22]
  TGI: 3.33 µM
[49]
  TGI: 2.9 µM
[50]
  TGI: 5.1 µM
[23]
  TGI: 4.57 µM
[51]
  TGI: 5.1 µM
[24]
  TGI: 6.21 µM
[25]
  TGI: 4.37 µM
[52]
  TGI: 8.57 µM
[53]
  TGI: > 21.2 µM
[26]
  TGI: 7.5 µM
[28]
  TGI: > 100 µM
[54]
  TGI: > 100 µM
[55]
  TGI: 4.07 µM
[29]
  TGI: > 20.3 µM
[56]
  TGI: 2.72 µM
[57]
  TGI: 4.72 µM
[30]
  TGI: 6.59 µM
[31]
  TGI: 3.23 µM

## CC(OC(C)(C)C)C1NC(=O)C(CCCCNC(=O)OC(C)(C)C)NC(=O)C(Cc2c[nH]c3ccccc23)NC(=O)C(Cc2ccccc2)NC(=O)C2(CCCC2)NC(=O)C(Cc2ccccc2)NC1=O (centres undefined) (cyclo([Ac5c]FWK(Boc)T(tBu)F); configuration not given here)
[35]
  TGI: 67.1 µM
[42]
  TGI: 47.6 µM
[18]
  TGI: > 100 µM
[57]
  TGI: 46.6 µM

## C=CCNc1nc2c(N)ncnc2s1
[1]
  TGI: > 10 µM
[3]
  TGI: > 10 µM
[4]
  TGI: > 10 µM
[6]
  TGI: > 10 µM
[7]
  TGI: > 10 µM
[32]
  TGI: > 10 µM
[11]
  TGI: > 10 µM
[12]
  TGI: > 10 µM
[35]
  TGI: > 10 µM
[37]
  TGI: > 10 µM
[14]
  TGI: > 10 µM
[39]
  TGI: > 10 µM
[40]
  TGI: > 10 µM
[16]
  TGI: > 10 µM
[58]
  TGI: > 10 µM
[17]
  TGI: > 10 µM
[18]
  TGI: > 10 µM
[19]
  TGI: > 10 µM
[44]
  TGI: > 10 µM
[46]
  TGI: > 10 µM
[20]
  TGI: > 10 µM
[48]
  TGI: > 10 µM
[22]
  TGI: > 10 µM
[49]
  TGI: > 10 µM
[51]
  TGI: > 10 µM
[24]
  TGI: > 10 µM
[25]
  TGI: > 10 µM
[52]
  TGI: > 10 µM
[27]
  TGI: > 10 µM
[28]
  TGI: > 10 µM
[54]
  TGI: > 10 µM
[55]
  TGI: > 10 µM
[56]
  TGI: > 10 µM
[30]
  TGI: > 10 µM
